Data from US12551499B2 (Atea Pharmaceuticals, Inc., priority 2020, dated 2026).
Where two headings read alike, the source gives them in different places.

Experiments:
[1] = tested on: human nasal epithelial cells; conditions: 10 μM
[2] = tested on: human bronchial epithelial cells; conditions: 10 μM
RSV = conditions: RSV-infected HAE cells; read-out: in vitro EC90; cited from earlier work
[3] = Plasma PK in non-human primates after oral Compound 2A; conditions: monkey plasma, oral Compound 2A 60 mg/kg then 30 mg/kg every 12 h, steady state
HCV = conditions: HCV-infected subjects, up to 12 weeks; cited from earlier work
SARS-CoV-2 (WA1) = experiment: Virus yield reduction assay, SARS-CoV-2 in dNHBE / HAE cells; format: cell-based
Experimental: The antiviral activity of Compound 1A was next evaluated against SARS-CoV-2 (WA1) using differentiated normal human bronchial epithelial (dNHBE; HAE (human airway epithelial) cells made to order by MatTek Corporation (Ashland, MA).
Cell Culture: dNHBE cells were grown on 6 mm mesh disks and arrived in kits with either 12- or 24-well transwell inserts. During transportation the tissues were stabilized on a sheet of agarose, which was removed upon receipt. One insert was estimated to consist of approximately 1.2×10^6 cells. Kits of cell inserts (EpiAirway™ AIR-100, AIR-112) originated from a single donor, #9831, a healthy, non-smoking person. The cells have unique properties in forming layers, the apical side of which is exposed only to air and that creates a mucin layer. Upon arrival, the cell transwell inserts were immediately transferred to individual wells of a 6-well plate according to manufacturer's instructions, and 1 mL of MatTek's proprietary culture medium (AIR-100-MM) was added to the basolateral side, whereas the apical side was exposed to a humidified 5% CO2 environment. Cells were cultured at 37° C. for one day before the start of the experiment. After the 24 hour equilibration period, the mucin layer, secreted from the apical side of the cells, was removed by washing with 400 μL pre-warmed 30 mM HEPES buffered saline solution 3×. Culture medium was replenished following the wash steps.
Viruses: Virus was diluted in AIR-100-MM medium before infection, yielding a multiplicity of infection (MOI) of approximately 0.0015 CCID50 per cell.
The cells were maintained at the air-liquid interface.
Determination of virus titers from each treated cell culture: Vero 76 cells were seeded in 96-well plates and grown overnight (37° C.) to confluence. Samples containing virus were diluted in 10-fold increments in infection medium and 200 μL of each dilution transferred into respective wells of a 96-well microtiter plate. Four microwells were used for each dilution to determine 50% viral endpoints. After 5 days of incubation, each well was scored positive for virus if any cytopathic effect (CPE) was observed as compared with the uninfected control and counts were confirmed for endpoint on days 6 and 7. […] The day 5 values were reported. Untreated, uninfected cells were used as the cell controls.
The antiviral activities of test compounds were evaluated against SARS-CoV-2 (USA-WA1/2020) using made to order human airway epithelial (HAE) cells.
Cell Culture: HAE cells were grown on 6 mm mesh disks and arrived in kits with either 12- or 24-well transwell inserts. During transportation the tissues were stabilized on a sheet of agarose, which was removed upon receipt. One insert was estimated to consist of approximately 1.2×10^6 cells. Kits of cell inserts (EpiAirway™ AIR-100 or AIR-112) originated from a single donor, #9831, a healthy, non-smoking person. The cells form polarized monolayers, the apical side of which is exposed to air and creates a mucin layer. Upon arrival, the cell transwell inserts were immediately transferred to individual wells of a 6-well plate according to the manufacturer's instructions, and 1 mL of MatTek's proprietary culture medium (AIR-100-MM) was added to the basolateral side, whereas the apical side was exposed to a humidified 5% CO2 environment. Cells were cultured at 37° C. in a humidified atmosphere containing 5% CO2 for one day before the start of the experiment. After the 24-h equilibration period, the mucin layer, secreted from the apical side of the cells, was removed by washing with 400 μL pre-warmed 30 mM HEPES buffered saline solution 3×. Culture medium was replenished following the wash steps.
Viruses: Virus was diluted in AIR-100-MM medium before infection to yield a MOI when added to cultures of approximately 0.0015 CCID50 per cell.
Select compounds of the present invention were tested in a SARS-CoV-2 assay. […]

[4] = tested on: human airway epithelial (HAE) cells
in vitro = conditions: human
[5] = Severe acute respiratory syndrome coronavirus 2, HAE, SARS-CoV-2 in HAE (dNHBE) cells, Table 11, read-out: VYR Assay EC90
[6] = Severe acute respiratory syndrome coronavirus 2, HAE, SARS-CoV-2, Table 11B, read-out: VYR Assay EC90

Nc1ccn([C@@H]2O[C@@](CO)(CCl)[C@@H](O)[C@H]2F)c(=O)n1 [ALS-8112, reference compound]
ratio of triphosphate from Compound 1A vs. comparator ([1]; 8 h): 1 | ratio of triphosphate from Compound 1A vs. comparator ([1]; 15 h): 3 | ratio of triphosphate from Compound 1A vs. comparator ([2]; 8 h): 2 | ratio of triphosphate from Compound 1A vs. comparator ([2]; 15 h): 5 | EC90 (RSV): 1.3 to 2.7 µM

C[C@@]1(F)[C@H](O)[C@@H](CO)O[C@H]1n1cnc2c(=O)[nH]c(N)nc21 [Compound 1-7, 2-amino-9-((2R,3R,4R,5R)-3-fluoro-4-hydroxy-5-(hydroxymethyl)-3-methyltetrahydrofuran-2-yl)-1,9-dihydro-6H-purin-6-one]
Cmax [3]: 160 nM | Tmax [3]: 2 h

CNc1nc(N)nc2c1ncn2[C@@H]1O[C@H](CO[P@@](=O)(N[C@@H](C)C(=O)OC(C)C)Oc2ccccc2)[C@@H](O)[C@@]1(C)F [Compound 2A]
safety and tolerability (HCV): safe and well-tolerated

[2H]C([2H])([2H])[C@@]1(F)[C@H](O)[C@@H](CO[P@@](=O)(N[C@@H](C)C(=O)OC(C)C)Oc2ccccc2)O[C@H]1n1cnc2c(NC)nc(N)nc21 [Compound 5, Isopropyl ((S)-(((2R,3R,4R,5R)-5-(2-amino-6-(methylamino)-9H-purin-9-yl)-4-fluoro-3-hydroxy-4-methyltetrahydrofuran-2-yl)methoxy)(phenoxy)phosphoryl)-L-alaninate]
EC90 (SARS-CoV-2 (WA1); [5]): 0.31 µM | VYR Assay CC50 [4]: no visual tox

CNc1nc(N)nc2c1ncn2[C@@H]1O[C@H](CO[P@@](=O)(N[C@@H](C)C(=O)OC(C)C)Oc2ccccc2)[C@@H](O)[C@]1(F)CF [Compound 6, Isopropyl ((S)-(((2R,3R,4R,5R)-5-(2-amino-6-(methylamino)-9H-purin-9-yl)-4-fluoro-4-(fluoromethyl)-3-hydroxytetrahydrofuran-2-yl)methoxy)(phenoxy)phosphoryl)-L-alaninate]
EC90 (SARS-CoV-2 (WA1); [5]): 1.8 µM | VYR Assay CC50 [4]: no visual tox

C#C[C@@]1(F)[C@H](O)[C@@H](CO[P@@](=O)(N[C@@H](C)C(=O)OC(C)C)Oc2ccccc2)O[C@H]1n1cnc2c(NC)nc(N)nc21 [Compound 7, Isopropyl ((S)-(((2R,3R,4R,5R)-5-(2-amino-6-(methylamino)-9H-purin-9-yl)-4-ethynyl-4-fluoro-3-hydroxytetrahydrofuran-2-yl)methoxy)(phenoxy)phosphoryl)-L-alaninate]
EC90 (SARS-CoV-2 (WA1); [5]): 3.2 µM | VYR Assay CC50 [4]: no visual tox

C=C[C@@]1(F)[C@H](O)[C@@H](CO[P@@](=O)(N[C@@H](C)C(=O)OC(C)C)Oc2ccccc2)O[C@H]1n1cnc2c(NC)nc(N)nc21 [Compound 8, Isopropyl ((S)-(((2R,3R,4R,5R)-5-(2-amino-6-(methylamino)-9H-purin-9-yl)-4-fluoro-3-hydroxy-4-vinyltetrahydrofuran-2-yl)methoxy)(phenoxy)phosphoryl)-L-alaninate]
EC90 (SARS-CoV-2 (WA1); [5]): 6.4 µM | VYR Assay CC50 [4]: no visual tox

CNc1nc(N)nc2c1ncn2[C@@H]1O[C@H](CO[P@@](=O)(N[C@@H](C)C(=O)OC(C)C)Oc2ccccc2)[C@@H](O)[C@]1(F)CO [Compound 9, Isopropyl ((S)-(((2R,3R,4R,5R)-5-(2-amino-6-(methylamino)-9H-purin-9-yl)-4-fluoro-3-hydroxy-4-(hydroxymethyl)tetrahydrofuran-2-yl)methoxy)(phenoxy)phosphoryl)-L-alaninate]
EC90 (SARS-CoV-2 (WA1); [5]): 8.5 µM | VYR Assay CC50 [4]: no visual tox

CC(C)OC(=O)[C@H](C)NP(=O)(OC[C@H]1O[C@@H](n2cnc3c(NC4CC4)nc(N)nc32)[C@@](F)(CO)[C@@H]1O)Oc1ccccc1 (stereo partly drawn) [Compound 10, Isopropyl ((((2R,3R,4R,5R)-5-(2-amino-6-(cyclopropylamino)-9H-purin-9-yl)-4-fluoro-3-hydroxy-4-(hydroxymethyl)tetrahydrofuran-2-yl)methoxy)(phenoxy)phosphoryl)-L-alaninate]
EC90 (SARS-CoV-2 (WA1); [5]): 5.3 µM | VYR Assay CC50 [4]: no visual tox

CNc1nc(N)nc2c1ncn2[C@@H]1O[C@H](CO[P@@](=O)(N[C@@H](C)C(=O)OC(C)C)Oc2ccccc2)[C@@H](O)[C@]1(F)C(F)(F)F [Compound 11A]
EC90 (SARS-CoV-2 (WA1); Severe acute respiratory syndrome coronavirus 2, HAE, read-out: VYR Assay EC90, SARS-CoV-2 in HAE (dNHBE) cells, Table 11): 3.7 µM | VYR Assay CC50 [4]: no visual tox

Cc1nc2nccnc2n1[C@@H]1O[C@H](COP(=O)(N[C@@H](C)C(=O)OC(C)C)Oc2ccccc2)[C@@H](O)[C@]1(F)C(F)(F)F (stereo partly drawn) [Compound 12]
EC90 (SARS-CoV-2 (WA1); [6]): 1.5 µM

Cc1ncc2ncn([C@@H]3O[C@H](COP(=O)(N[C@@H](C)C(=O)OC(C)C)Oc4ccccc4)[C@@H](O)[C@]3(F)C(F)(F)F)c2n1 (stereo partly drawn) [Compound 13]
EC90 (SARS-CoV-2 (WA1); [6]): 3.2 µM

CC(C)OC(=O)[C@H](C)NP(=O)(OC[C@H]1O[C@@H](Oc2ncc(Br)nc2C(N)=O)[C@@](F)(C(F)(F)F)[C@@H]1O)Oc1ccccc1 (stereo partly drawn) [Compound 14]
EC90 (SARS-CoV-2 (WA1); [6]): 0.57 µM

CC(C)OC(=O)[C@H](C)N[P@](=O)(OC[C@H]1O[C@@](C#N)(n2ncc3c(N)ncnc32)[C@H](F)[C@@H]1O)Oc1ccccc1 [Compound 15]
EC90 (SARS-CoV-2 (WA1); [6]): 1.1 µM

O=c1nc(NO)ccn1[C@@H]1O[C@H](CO)[C@@H](O)[C@H]1O [N^4-hydroxycytidine, reference compound]
Selectivity Index (CC50/EC90) (SARS-CoV-2 (WA1); SARS-CoV-2 in HAE, Table 5): >5.1 | EC90 (SARS-CoV-2 (WA1); SARS-CoV-2 in HAE, footnotes f, g, h of Table 5, read-out: EC90, single replicates): 3.1 µM | potency relative to Compound 1A (times less) (SARS-CoV-2 (WA1); SARS-CoV-2 in HAE, same experiment): 8 times

CC(C)OC(=O)[C@H](C)N[P@](=O)(OC[C@H]1O[C@@H](n2ccc(=O)[nH]c2=O)[C@](C)(F)[C@@H]1O)Oc1ccccc1 [Sofosbuvir, reference compound]
EC90 (SARS-CoV-2 (WA1); [5]): > 19 µM | VYR Assay CC50 [4]: no visual tox

CCN(CC)CCCC(C)Nc1ccnc2cc(Cl)ccc12 (stereo not drawn) [chloroquine]
CC50 (in vitro): 21 µM

CCN(CCO)CCCC(C)Nc1ccnc2cc(Cl)ccc12 (stereo not drawn) [hydroxychloroquine]
CC50 (in vitro): 26 µM
